Experiments:
MDA-MB-231 cells = assay: Inhibition of proliferation of MDA-MB-231 cells (CCK-8); format: cell-based, human; conditions: for IC50: Homo sapiens, 144 h, 6 days, CCK-8
Procedure: (§1) • MDA-MB-231 cell line (Cell Bank of Chinese Academy of Sciences, TCHu104) • FBS (Gibco, Cat. No. 10099-141) • 0.01M PBS (Biosharp, Cat. No. 162262) • RIPM1640 (Hyclone, Cat. No. 308090.01) • Penicillin-Streptomycin (Hyclone, Cat. No. SV30010) • Cell counting kit-8 (Signalway Antibody, Cat. No. CP002) • DMSO (Sigma, Cat. No. D5879) • Centrifuge Tube, 15 ml (Excell Bio, Cat. No. CS015-0001) • Cell Culture Dish, (Excell Bio, Cat. No. CS016-0128) • 96-well cell culture cluster (Corning, Cat. No. 3599) 3. Experimental Method
1) MDA-MB-231 cells were subcultured in cell culture media, and the cells in good growth condition were seeded in a 96-well plate, 80 μL for each well, thus the number of cells per well was 1500, then the plate was cultured overnight in a 37° C., 5% CO2 cell incubator.
(§2) 2) The drug was prepared with dimethyl sulfoxide (DMSO) as a 10 mM stock solution. Prior to use, the solution was diluted 3 times with DMSO, and then diluted with a 3-fold gradient to obtain 9 concentration gradients. Then, each concentration of the compound was further diluted 200 times with the culture media (to ensure that DMSO concentration in the culture system was 0.1%), 2 repeat wells for each concentration. The diluted solution of each compound (20 μL) was added to the cell culture well (with a final concentration of 10 μM, 3.3 μM, 1.1 μM . . . ), and shaken gently for mixing. In addition, three negative control wells containing only cells and three blank control wells containing only culture medium (20 μL DMSO diluted 200 times with culture medium being added to six wells) were included.
(§3) (1) After culturing for 6 days, 10 μL CCK-8 was added to each well and cultured for additional 2.5 h in a 37° C., 5% CO2 cell incubator.
(§4) (2) The absorbance (OD value) at 450 nm was measured with a multifunctional microplate reader.
(§5) (3) The data was analyzed by the Dose-response-inhibition equation in the software GraphPad Prism6, and the IC50 value was obtained.

MDA-MB-453 cells = assay: Inhibition of proliferation of MDA-MB-453 cells (CCK-8); format: cell-based, human; conditions: for IC50: Homo sapiens, 144 h, 6 days, CCK-8
Procedure: as §1, with “MDA-MB-453” for “MDA-MB-231”, “TCHu35)” for “TCHu104)”
1) MDA-MB-453 cells were subcultured in cell culture media, and the cells in good growth condition were seeded in a 96-well plate, 80 μL for each well, thus the number of cells per well was 1500, then the plate was cultured overnight in a 37° C., 5% CO2 cell incubator.
as §2, §3, §4, §5

BRD4(1,2) = BRD4(1,2) (Homo sapiens (Human), UniProt O60885); assay: HTRF binding of compounds on BRD4 (D1+D2); conditions: read-out: IC50 against BRD4(1,2)
Excerpt: Homogeneous time-resolved fluorescence technology (HTRF) was used to determine the binding effect of compounds on BRD4 (D1+D2) and BRDT (D1) proteins, as well as AlphaScreen method was used to detect the binding effect of compounds on BRD2 (D1+D2) and BRD3 (D1+D2) proteins.
The compounds were screened in vitro, and each compound was serially diluted to 10 concentrations. Four proteins BRD4 (D1+D2), BRDT (D1), BRD2 (D1+D2) and BRD3 (D1+D2) were chosen to determine the IC50 values of compounds (see Table 1).
4. Compound treatment: The test compound was dissolved in dimethyl sulfoxide (DMSO), and the storage concentration was 10 mM.
5. Steps for Homogeneous Time-Resolved Fluorescence Detection:
1) According to the arrangement of the detection plate, all compounds were diluted in Echo plate.
The final dilution concentration of DMSO is 0.1%.
2) The compound or DMSO was transferred to a 384-well detection plate with the Echo automatic sampler.
3) Two-fold concentration of the mixture of protein and peptide was added to the detection plate.
4) Two-fold concentration of mixed detection solution was added to the test plate, and shaken for 30 s.
5) Incubating for 2 h at room temperature.
6) Fluorescence signal was read on Envision multi-function microplate reader (excitation light wavelength being 340 nm, and emission light wavelength being 615 nm and 665 nm).
The experimental data were recorded in an Excel file, and equation (1) was used to obtain the inhibition rate. Inh%=(Max−Signal)/(Max−Min)*100 Equation (1):
The obtained data was recorded in GraphPad software, and equation (2) was used to provide the IC50 values. Y=Bottom+(Top−Bottom)/(1+10^((Log IC50−X)*Hill Slope)) Equation (2): […]
Y axis was the inhibition rate, and X axis was the compound concentration.

Row | IC50 (MDA-MB-231 cells) | IC50 (MDA-MB-453 cells) | IC50 (BRD4(1,2)) | SMILES | inhibitory action on MDA-MB-453 cells (in words) (MDA-MB-453 cells) | inhibitory action on MDA-MB-231 cells (in words) (MDA-MB-231 cells)
1 | 7540 nM | 89 nM | 14 nM | [2H]C([2H])([2H])n1cc(-c2cc(NS(=O)(=O)CC)ccc2N2CCC3(CC2)CC3)c2cc[nH]c2c1=O [Compound 41] | – | –
2 | 749 nM | 48 nM | – | [2H]C([2H])([2H])n1cc(-c2cc(S(=O)(=O)CC)ccc2N2CCC3(CC3)C2)c2cc[nH]c2c1=O [Compound 55, 4-(5(ethylsulfonyl)-2-(5-aza-spiro[2.4]heptan-5-yl)phenyl)-6-trideuteromethyl-1H-pyrrolo[2,3-c]pyridin-7(6H)-one] | effective inhibitory action | –
3 | 26 nM | 440 nM | 6.9 nM | [2H]C([2H])([2H])n1cc(-c2cc(S(C)(=O)=O)ccc2N2CCC3(CC2)CC3(F)F)c2cc[nH]c2c1=O [Compound 184, 4-(2-(1,1-difluoro-6-aza-spiro[2.5]octan-6-yl)-5-(methylsulfonyl)phenyl)-6-trideuteromethyl-1H-pyrrolo[2,3-c]pyridin-7(6H)-one] | – | effective inhibitory action
4 | – | – | 12 nM | [2H]C([2H])([2H])n1cc(-c2cc(S(C)(=O)=O)c(F)cc2N2CCC3(CC2)CC3(F)F)c2cc[nH]c2c1=O [Compound 219, 4-(2-(1,1-difluoro-6-aza-spiro[2.5]octan-6-yl)-4-fluoro-5-(methylsulfonyl)phenyl)-6-trideuteromethyl-1H-pyrrolo[2,3-c]pyridin-7(6H)-one] | – | –

Reference: US12162878B2 (HINOVA PHARMACEUTICALS INC., priority 2018, dated 2024)
